Source: the Deep4Chem optical property database

Test: solvent given as SMILES

With `CCCCn1c2ccc(-c3cccs3)cc2c2c1c1c3ccc(-c4cccs4)cc3n(CCCC)c1c1c3ccc(-c4cccs4)cc3n(CCCC)c21` as the molecule, how does the fluorescence lifetime (in C1CCOC1) read?
The fluorescence lifetime was 4.2 ns.

With `CCn1c2ccccc2c2cc3c(cc21)c1ccccc1n3CC` as the molecule, how does the fluorescence lifetime (in ClC(Cl)Cl) read?
The fluorescence lifetime was 2.9 ns.

Which fluorescence lifetime (in ClC(Cl)Cl) does the source give for `CN(C)c1ccc(-c2cc(-c3cccs3)nc(-c3ccccc3)n2)cc1` here?
The fluorescence lifetime was 7 ns.

Which fluorescence lifetime (in C1CCOC1) does the source give for `C(=C\c1ccc(N(c2ccc(/C=C/c3ccc(N(c4ccccc4)c4ccccc4)cc3)cc2)c2ccc(/C=C/c3ccc(/C=C/c4ccc(N(c5ccc(/C=C/c6ccc(N(c7ccccc7)c7ccccc7)cc6)cc5)c5ccc(/C=C/c6ccc(N(c7ccccc7)c7ccccc7)cc6)cc5)cc4)c4nsnc34)cc2)cc1)/c1ccc(N(c2ccccc2)c2ccccc2)cc1` here?
The fluorescence lifetime was 1.83 ns.

And the fluorescence lifetime (in CCOC(C)=O)?
The fluorescence lifetime was 1.85 ns.

And the fluorescence lifetime (in Cc1ccccc1)?
Its fluorescence lifetime is 3.61 ns.

And the fluorescence lifetime (in ClC(Cl)Cl)?
Its fluorescence lifetime is 2.08 ns.

What about the fluorescence lifetime (in ClCCl) of the same molecule?
Its fluorescence lifetime is 1.86 ns.

With `C[N+]1=c2ccc3c(c2C(C)(C)CC1)Oc1cc2c(cc1C=3c1ccccc1C(=O)O)C(c1ccccc1C(=O)O)=c1ccc3c(c1O2)C(C)(C)CC[N+]=3C` as the molecule, how does the fluorescence lifetime (in ClC(Cl)Cl) read?
The fluorescence lifetime was 2.48 ns.

For `Cc1ccc(N(c2ccc(C)cc2)c2ccc(-c3ccc(C=C(C#N)C#N)cc3)cc2)cc1`, which fluorescence lifetime (in ClC(Cl)Cl) is on record?
The fluorescence lifetime was 1.06 ns.

For `O=C1c2ccccc2C2=Nc3cccc4cccc(c34)N12`, which fluorescence lifetime (in ClCCl) is on record?
Its fluorescence lifetime is 0.86 ns.

Which fluorescence lifetime (in Cc1ccccc1) does the source give for `FC(F)(F)c1ccc(-c2nnc(-c3cc(-n4c5ccccc5c5ccccc54)c(-n4c5ccccc5c5ccccc54)cc3-c3nnc(-c4ccc(C(F)(F)F)cc4)o3)o2)cc1` here?
The fluorescence lifetime was 19.1 ns.

For `CC(C)(C)c1cc(-n2c(-c3ccc(C(=C(c4ccccc4)c4ccccc4)c4ccccc4)cc3)cc3c2cc(-c2ccc(C(=C(c4ccccc4)c4ccccc4)c4ccccc4)cc2)n3-c2cc(C(C)(C)C)cc(C(C)(C)C)c2)cc(C(C)(C)C)c1`, which fluorescence lifetime (in ClCCl) is on record?
Its fluorescence lifetime is 0.063 ns.

For `CCCCC(CC)CN1C(=O)C2=C(c3ccc(-c4ccc(C5=C6C(C)=CC(C)=[N+]6[B-](F)(F)n6c(C)cc(C)c65)cc4)s3)N(CC(CC)CCCC)C(=O)C2=C1c1cccs1` (stereo not given), which fluorescence lifetime (in Cc1ccccc1) is on record?
Its fluorescence lifetime is 3.87 ns.

Which fluorescence lifetime (in CC#N) does the source give for `O=c1oc2ccccc2cc1/C=C/c1ccc([N+](=O)[O-])cc1` here?
The fluorescence lifetime was 0.08 ns.

Which fluorescence lifetime (in CC#N) does the source give for `COc1ccc(/C=C/C2=[O+][B-](F)(F)OC(/C=C/c3ccc(OC)cc3)=C2c2ccccc2)cc1` here?
Its fluorescence lifetime is 1.5 ns.

What about the fluorescence lifetime (in CC(C)=O) of the same molecule?
Its fluorescence lifetime is 1.43 ns.

And the fluorescence lifetime (in CCOC(C)=O)?
The fluorescence lifetime was 1.18 ns.

What about the fluorescence lifetime (in CCOCC) of the same molecule?
The fluorescence lifetime was 0.9 ns.

What about the fluorescence lifetime (in ClC(Cl)(Cl)Cl) of the same molecule?
The fluorescence lifetime was 0.7 ns.

And the fluorescence lifetime (in ClCCl)?
The fluorescence lifetime was 1.35 ns.

With `N#Cc1nc2c3ccc(N(c4ccccc4)c4ccccc4)cc3c3cc(N(c4ccccc4)c4ccccc4)ccc3c2nc1C#N` as the molecule, how does the fluorescence lifetime (in O=P(c1ccccc1)(c1ccccc1)c1cccc(-c2cc(-n3c4ccccc4c4ccccc43)cc(-n3c4ccccc4c4ccccc43)c2)n1) read?
Its fluorescence lifetime is 13.4 ns.

With `c1ccc2c(c1)[nH]c1ccccc12` as the molecule, how does the fluorescence lifetime (in CC#N) read?
The fluorescence lifetime was 15.1 ns.

What about the fluorescence lifetime (in CCCCCC) of the same molecule?
Its fluorescence lifetime is 14.2 ns.

What about the fluorescence lifetime (in CCO) of the same molecule?
Its fluorescence lifetime is 16.1 ns.

For `CC(C)c1cc(C(C)C)c(B2c3cc(N4c5ccccc5C(C)(C)c5ccccc54)ccc3N(c3ccccc3)c3ccc(N4c5ccccc5C(C)(C)c5ccccc54)cc32)c(C(C)C)c1`, which fluorescence lifetime (in c1cc(-c2cccc(-n3c4ccccc4c4ccccc43)c2)cc(-n2c3ccccc3c3ccccc32)c1) is on record?
Its fluorescence lifetime is 17 ns.

For `CCCCCCCCCCCCOc1cc2c3c(ccc4c5c(N6CCOCC6)cc6c7c(ccc(c1c34)c75)C(=O)N(C1CCCCC1)C6=O)C(=O)N(C1CCCCC1)C2=O`, which fluorescence lifetime (in ClC(Cl)Cl) is on record?
The fluorescence lifetime was 3.4 ns.

Which fluorescence lifetime (in CC#N) does the source give for `Cc1cc(C)c2nc3[nH]c(=O)[nH]c(=O)c3nc2c1` here?
The fluorescence lifetime was 1.65 ns.

With `CN(C)c1ccc(/C=C/c2ccc(-c3nnc(-c4ccc(-c5cc6ccccc6s5)cc4)o3)cc2)cc1` as the molecule, how does the fluorescence lifetime (in Cc1ccccc1) read?
The fluorescence lifetime was 0.52 ns.

And the fluorescence lifetime (in ClC(Cl)Cl)?
The fluorescence lifetime was 0.53 ns.

With `CC(C)(C)C1Nc2ccccc2C(=O)N1Cc1ccccc1` (stereo not given) as the molecule, how does the fluorescence lifetime (in CC#N) read?
Its fluorescence lifetime is 2.43 ns.

What about the fluorescence lifetime (in CCCCCCCCCCCCCCCC) of the same molecule?
The fluorescence lifetime was 4.97 ns.

What about the fluorescence lifetime (in CO) of the same molecule?
The fluorescence lifetime was 5.24 ns.

What about the fluorescence lifetime (in ClC(Cl)Cl) of the same molecule?
Its fluorescence lifetime is 5.86 ns.

What about the fluorescence lifetime (in c1ccccc1) of the same molecule?
Its fluorescence lifetime is 5.11 ns.

For `COc1ccc(-c2ccc3c(c2)c2cc(-c4ccc(OC)cc4)ccc2n3-c2ccc(C(=O)c3ccc4sc5ccccc5c4c3)cc2)cc1`, which fluorescence lifetime (in c1cc(-n2c3ccccc3c3ccccc32)cc(-n2c3ccccc3c3ccccc32)c1) is on record?
The fluorescence lifetime was 7.8 ns.

For `CC(C)[Si](C#CC1=CC2=c3cc(C#C[Si](C(C)C)(C(C)C)C(C)C)c4nc(C(F)(F)C(F)(F)C(F)(F)F)nc5c(C#C[Si](C(C)C)(C(C)C)C(C)C)cc(c3c54)C3=CC(C#C[Si](C(C)C)(C(C)C)C(C)C)=C4N=C(C(F)(F)C(F)(F)C(F)(F)F)N=C1C4C32)(C(C)C)C(C)C` (stereo not given), which fluorescence lifetime (in C1CCOC1) is on record?
Its fluorescence lifetime is 2 ns.

Which fluorescence lifetime (in Cc1ccccc1) does the source give for `CCCCCCCCC1(CCCCCCCC)c2ccccc2-c2ccc(-c3nnc(-c4cccc(-n5c6ccc(C(C)(C)C)cc6c6cc(C(C)(C)C)ccc65)c4)o3)cc21` here?
Its fluorescence lifetime is 7.65 ns.

With `COCCOCCOCCOCC(COCCOCCOCCOC)Oc1cc(/C=C/c2ccc(/C=C(\C#N)C(=O)c3ccccc3)cc2)c(OC(COCCOCCOCCOC)COCCOCCOCCOC)cc1/C=C/c1ccc(/C=C(\C#N)C(=O)c2ccccc2)cc1` as the molecule, how does the fluorescence lifetime (in ClCCl) read?
The fluorescence lifetime was 1 ns.

For `CCCCCCCCN1C(=O)c2ccc3c4c(-c5ccc6c(c5)c5ccccc5n6-c5ccccc5)cc5c6c(cc(-c7ccc8c(c7)c7ccccc7n8-c7ccccc7)c(c7ccc(c2c37)C1=O)c64)C(=O)N(CCCCCCCC)C5=O`, which fluorescence lifetime (in ClC(Cl)Cl) is on record?
Its fluorescence lifetime is 4.1 ns.

For `CCCCCCCCCC[n+]1cc2ccc3c[n+](CCCCCCCCCC)cc4ccc(c1)c2c34`, which fluorescence lifetime (in CC#N) is on record?
The fluorescence lifetime was 9.5 ns.

For `CNc1ccc2c(c1)-c1ccccc1C2=O`, which fluorescence lifetime (in CC#N) is on record?
The fluorescence lifetime was 4.3 ns.

And the fluorescence lifetime (in c1ccccc1)?
Its fluorescence lifetime is 9.4 ns.

For `CN(C)c1ccc(C2=Cc3ccccc3P2(=O)c2ccccc2)cc1` (stereo not given), which fluorescence lifetime (in ClCCl) is on record?
Its fluorescence lifetime is 6.1 ns.

Which fluorescence lifetime (in ClC(Cl)Cl) does the source give for `CN(C)c1ccc(C2=Cc3ccc4ccccc4[n+]3[B-](F)(F)O2)cc1` here?
The fluorescence lifetime was 2.8 ns.

Which fluorescence lifetime (in ClC(Cl)Cl) does the source give for `COc1ccc(-c2oc3cccc4c5c(-c6ccc(OC)cc6)c(=N)oc6cccc(c2c34)c65)cc1` here?
The fluorescence lifetime was 1.5 ns.

For `CC[n+]1nc2cc3c4c(c2c2cc(C)ccc21)CCCN4CCC3`, which fluorescence lifetime (in O) is on record?
The fluorescence lifetime was 4.2 ns.

For `COC(=O)/C(C#N)=c1\s/c(=c2/s/c(=C(/C#N)C(=O)OC)c3cc(-c4ccc(OC)cc4)sc23)c2sc(-c3ccc(OC)cc3)cc12`, which fluorescence lifetime (in Cc1ccccc1) is on record?
Its fluorescence lifetime is 4.36 ns.

Which fluorescence lifetime (in ClCCl) does the source give for `CCCCCCCCCCCCN1C(=O)c2c(c3ccc4cc(-c5ccc(C(F)(F)F)cc5)c(OC)cc4c3c3c2ccc2cc(-c4ccc(C(F)(F)F)cc4)c(OC)cc23)C1=O` here?
Its fluorescence lifetime is 6.39 ns.

Which fluorescence lifetime (in ClC(Cl)Cl) does the source give for `Fc1cccc(C2=Cc3ccc4ccccc4[n+]3[B-](F)(F)O2)c1` here?
Its fluorescence lifetime is 1.11 ns.

For `CN(C)c1ccc(C2=Nc3sc4cc(F)ccc4[n+]3[B-](F)(F)O2)cc1`, which fluorescence lifetime (in Cc1ccccc1) is on record?
Its fluorescence lifetime is 1.68 ns.

For `CC(C)(C)N1C(=O)c2c(cc3ccc4cccc5ccc2c3c45)C1O` (stereo not given), which fluorescence lifetime (in ClC(Cl)Cl) is on record?
The fluorescence lifetime was 4.93 ns.

With `CSc1ccc2c(c1)N(CCCN(C)C)c1ccccc1S2` as the molecule, how does the fluorescence lifetime (in CC#N) read?
Its fluorescence lifetime is 1.16 ns.

And the fluorescence lifetime (in CO)?
Its fluorescence lifetime is 1.15 ns.

What about the fluorescence lifetime (in O) of the same molecule?
The fluorescence lifetime was 1.17 ns.

With `Cc1ccc(C2CC(c3ccc(O)cc3)=NN2c2ccc(S(N)(=O)=O)cc2)cc1` (stereo not given) as the molecule, how does the fluorescence lifetime (in C1CCOC1) read?
Its fluorescence lifetime is 2.4 ns.

And the fluorescence lifetime (in C1COCCO1)?
The fluorescence lifetime was 2.41 ns.

And the fluorescence lifetime (in CC#N)?
The fluorescence lifetime was 2.32 ns.

What about the fluorescence lifetime (in CC(C)O) of the same molecule?
Its fluorescence lifetime is 2.11 ns.

What about the fluorescence lifetime (in CCO) of the same molecule?
The fluorescence lifetime was 2.04 ns.

And the fluorescence lifetime (in CCOC(C)=O)?
Its fluorescence lifetime is 2.41 ns.

What about the fluorescence lifetime (in CN(C)C=O) of the same molecule?
The fluorescence lifetime was 2.59 ns.

What about the fluorescence lifetime (in CO) of the same molecule?
Its fluorescence lifetime is 1.66 ns.

What about the fluorescence lifetime (in CS(C)=O) of the same molecule?
Its fluorescence lifetime is 2.56 ns.

What about the fluorescence lifetime (in O) of the same molecule?
Its fluorescence lifetime is 3.35 ns.
